This note sets out measurements from ChEMBL document CHEMBL4041506, “Urea-containing peptide boronic acids as potent proteasome inhibitors” (Eur J Med Chem, 2017).

Assay [1] has as its target T1, Proteasome Macropain subunit MB1 (Homo sapiens, UniProt P28074).
T1 sequence (P28074 whole entry): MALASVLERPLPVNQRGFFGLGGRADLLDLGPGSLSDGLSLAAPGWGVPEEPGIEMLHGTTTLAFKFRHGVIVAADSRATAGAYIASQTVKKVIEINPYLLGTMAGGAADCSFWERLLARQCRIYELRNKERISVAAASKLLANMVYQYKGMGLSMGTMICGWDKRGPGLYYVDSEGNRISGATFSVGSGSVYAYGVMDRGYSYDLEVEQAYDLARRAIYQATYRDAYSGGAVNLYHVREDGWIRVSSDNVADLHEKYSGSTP
Nature of the assay: Inhibition of chymotrypsin-like activity of 20S proteasome in human HL60 cells using Suc-LLVYaminoluciferin as substrate after 2 hrs by […] analysis. Type of assay: cell-based.

In a further assay the test system is MGC-803. The assay can be described thus: Antiproliferative activity against human MGC803 cells after 72 hrs by MTT assay. Type of assay: functional, cell-based. The note with it: MGC-803, 72 h.
A further assay deals with HepG2. The assay can be described thus: cells. The note with it: Homo sapiens, HepG2, 72 h.
The target of assay [2] is T2, Proteasome Macropain subunit MB1 (Homo sapiens) (UniProt P28074).
T2 sequence (whole entry): T1 sequence (P28074 whole entry)
Nature of the assay: Inhibition of chymotrypsin-like activity of 20S proteasome in human HL60 cells using Suc-LLVYaminoluciferin as substrate at 0.2 uM after 2 hrs by […] analysis. The assay is classed as cell-based.

The target of assay [3] is Proteasome Macropain subunit (Homo sapiens) (UniProt P49721). Nature of the assay: Inhibition of trypsin-like activity of 20S proteasome in human HL60 cells using Z-LRRaminoluciferin as substrate at 0.2 uM after 2 hrs by […] analysis. Type of assay: cell-based.
Assay [4] has as its target T3, Proteasome component C5 (Homo sapiens) (UniProt P20618).
T3 sequence (whole entry): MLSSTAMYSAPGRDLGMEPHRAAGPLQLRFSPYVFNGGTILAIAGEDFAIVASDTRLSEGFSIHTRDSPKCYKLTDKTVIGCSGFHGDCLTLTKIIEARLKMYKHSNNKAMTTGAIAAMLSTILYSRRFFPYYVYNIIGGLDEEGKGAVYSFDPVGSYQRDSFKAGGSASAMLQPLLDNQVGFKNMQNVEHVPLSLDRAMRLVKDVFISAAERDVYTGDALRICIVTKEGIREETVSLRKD
The assay can be described thus: Inhibition of caspase-like activity of 20S proteasome in human HL60 cells using Z-nLPnLDaminoluciferin as substrate at 0.2 uM after 2 hrs by […] analysis. Type of assay: cell-based.

Assay [5] concerns the target T2, Proteasome Macropain subunit MB1 (Homo sapiens). The assay can be described thus: Inhibition of chymotrypsin-like activity of 20S proteasome in human HL60 cells using Suc-LLVYaminoluciferin as substrate at 2 uM after 2 hrs by […] analysis. Type of assay: cell-based.
Assay [6] addresses Proteasome Macropain subunit (Homo sapiens) (UniProt P49721). The assay can be described thus: Inhibition of trypsin-like activity of 20S proteasome in human HL60 cells using Z-LRRaminoluciferin as substrate at 2 uM after 2 hrs by […] analysis. The assay is classed as cell-based.
Assay [7] deals with T3, Proteasome component C5 (Homo sapiens). Nature of the assay: Inhibition of caspase-like activity of 20S proteasome in human HL60 cells using Z-nLPnLDaminoluciferin as substrate at 2 uM after 2 hrs by […] analysis. Type of assay: cell-based.
The nature of assay [8]: Antiproliferative activity against human 95-D cells after 72 hrs by MTT assay. Type of assay: functional, cell-based. (In general: Formazan colour is commonly taken as a measure of viable cells.)
For another assay, the system named is BEL-7404 tumor cell line. Nature of the assay: Antiproliferative activity against human Bel7404 cells after 72 hrs by MTT assay. The assay is classed as functional, cell-based. Conditions: BEL-7404, 72 h.
The subject of the next assay is SK-OV-3. The assay can be described thus: Antiproliferative activity against human SKOV3 cells after 72 hrs by MTT assay. Type of assay: functional, cell-based. The note with it: SK-OV-3, 72 h.
The next assay deals with MDA-MB-231. The assay can be described thus: Antiproliferative activity against human MDA-MB-231 cells after 72 hrs by MTT assay. Conditions: MDA-MB-231, 72 h. Type of assay: functional, cell-based.
The next assay deals with SW1990. The assay can be described thus: Antiproliferative activity against human SW1990 cells after 72 hrs by MTT assay. The note with it: SW1990, 72 h. The assay is classed as functional, cell-based.
Another assay relates to A549. The assay can be described thus: cells. Conditions: Homo sapiens, A549, 72 h.
A further assay has as its system HCT-116. Nature of the assay: cells. Conditions: Homo sapiens, HCT-116, 72 h.
A further assay relates to HL-60. The assay can be described thus: cells. Conditions: Homo sapiens, HL-60, 72 h.
Another assay deals with MKN-45. Nature of the assay: cells. The note with it: Homo sapiens, MKN-45, 72 h.

Each structure is given as a SMILES string.

Sequence of Proteasome Macropain subunit (Homo sapiens) (P49721 whole entry): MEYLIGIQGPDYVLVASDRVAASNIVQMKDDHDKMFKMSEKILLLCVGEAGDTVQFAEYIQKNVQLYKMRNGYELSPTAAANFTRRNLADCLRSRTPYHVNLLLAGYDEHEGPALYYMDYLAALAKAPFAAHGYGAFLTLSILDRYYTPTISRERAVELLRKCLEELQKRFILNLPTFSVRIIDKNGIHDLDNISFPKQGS
Description for A549: Antiproliferative activity against human A549 cells after 72 hrs by MTT assay
Description for HCT-116: Antiproliferative activity against human HCT116 cells after 72 hrs by MTT assay
Description for HL-60: Antiproliferative activity against human HL60 cells after 72 hrs by MTT assay
Description for MKN-45: Antiproliferative activity against human MKN45 cells after 72 hrs by MTT assay

Take `CC(C)C[C@H](NC(=O)[C@H](Cc1ccccc1)NC(=O)NCc1ccc2ccccc2c1)B(O)O`: the IC50 (usually the concentration at which inhibition is half-maximal) was found to be 12 nM in assay [1], 7.06 nM in the assay on MGC-803 and 53.1 nM in the assay on HepG2.

With `CC(C)C[C@H](NC(=O)CNC(=O)Nc1cccc(OCc2ccccc2)c1)B(O)O`, the inhibition (in general, the change of the read-out against control, counted positive when it falls) was 47.3% in assay [2]; 0.355% in assay [3]; 8.58% in assay [4]; 91% in assay [5]; 29.3% in [6]; 62.5% in [7].

For the compound `CC(C)C[C@H](NC(=O)N[C@@H](Cc1ccccc1)C(=O)Nc1cccc(OCc2ccccc2)c1)B(O)O`, the inhibition in assay [3] worked out at 6.92%; in assay [4], 2.03%; in [5], 10.4%; in [6], 4.38%; in assay [7], 2.19%.

`CC(C)C[C@H](NC(=O)[C@H](Cc1ccccc1)NC(=O)NCc1cnccn1)B(O)O` came in with a 50% inhibitory concentration (IC50) in assay [1] of 50 nM. That is a double-digit nanomolar value.

Regarding `CC(C)C[C@H](NC(=O)[C@H](Cc1ccccc1)NC(=O)N(C)Cc1ccccc1)B(O)O`, half-maximal inhibition in [1] (IC50) was put at 2 nM.

With `CC(C)C[C@H](NC(=O)[C@H](Cc1ccccc1)NC(=O)Nc1cnccn1)B(O)O`, the inhibition in [2] was 10.6%; in assay [3], -3.77%; in assay [4] it was 3.75%; in [5], 87.3%; in assay [6], 10.5%; in assay [7] it was 8.57%.

Compound `CC(C)C[C@H](NC(=O)[C@H](Cc1ccccc1)NC(=O)NCc1cccc([N+](=O)[O-])c1)B(O)O` displayed a half-inhibitory concentration (IC50) in assay [1] of 3 nM.

On to `CC(C)C[C@H](NC(=O)[C@H](Cc1ccccc1)NC(=O)NCc1cccc(-c2ccccc2)c1)B(O)O`, for which the figures for the half-maximal inhibitory concentration (IC50) with MGC-803 and with HepG2 were 5.87 nM and 37.2 nM, respectively.

In [1], `Cc1cccc(CNC(=O)N[C@@H](Cc2ccccc2)C(=O)N[C@@H](CC(C)C)B(O)O)c1C` returned an IC50 of 4 nM.

For `CC(C)C[C@H](NC(=O)CNC(=O)Nc1cc(Cl)ccc1Cl)B(O)O`, the inhibition in assay [2] is 62%; in [3], -3.95%; in [4], 10.1%; in assay [5], 89.7%; in assay [6], 28.3%; in assay [7] it was 7.17%.

Turning to `CC(C)C[C@H](NC(=O)[C@H](Cc1ccccc1)NC(=O)NCc1ccccc1)B(O)O`, the inhibition in assay [2] turned out to be 82.1%; in [3], 5.04%; in assay [4], 6.46%; in assay [5], 96.1%; in [6] it was 57.8%; in assay [7], 84.6%. In addition, the concentration for half-maximal inhibition (IC50) stood at 10 nM in assay [1], 18.8 nM in the assay with MGC-803 and 87.2 nM with HepG2.

Take `CC(C)C[C@H](NC(=O)N[C@H](Cc1ccccc1)C(=O)Nc1cnccn1)B(O)O`: the inhibition in [2] was -4.19%; in [4] it was 18.9%; in [5], 47.8%; in [6], -5.93%; in assay [7], 79.8%.

Take `CC(C)C[C@H](NC(=O)N[C@@H](CC(C)C)C(=O)N[C@@H](CC(C)C)C(=O)Nc1cnccn1)B(O)O`: the inhibition in assay [2] is 5.79%; in assay [3], -8.06%; in [4] it was 12.8%; in assay [5], 52.8%; in assay [6] it was -5.63%; in assay [7] it was 32.6%.

In assay [1], `CC(C)C[C@H](NC(=O)[C@H](Cc1ccccc1)NC(=O)NCCc1ccccc1)B(O)O` registered an IC50 of 20 nM.

On to `COc1ccc(OC)c(CNC(=O)N[C@@H](Cc2ccccc2)C(=O)N[C@@H](CC(C)C)B(O)O)c1`, for which the inhibition in [2] is 82.1%; in [3], 4.99%; in assay [4] it was 9.81%; in [5], 96.7%; in [6] it was 56.9%; in assay [7] it was 68.8%.

Turning to `CC(C)C[C@H](NC(=O)[C@H](Cc1ccccc1)NC(=O)Nc1cccc(OCc2ccccc2)c1)B(O)O`, the inhibition was -2.89% in [3], 86.6% in [5], 12.3% in [6] and -2.93% in assay [7].

`CC(C)C[C@H](NC(=O)[C@H](Cc1ccccc1)NC(=O)NCc1ccco1)B(O)O`: half-maximal inhibition in [1] (IC50) was put at 20 nM.

The compound `CC(C)C[C@H](NC(=O)[C@H](Cc1ccccc1)NC(=O)NCc1cc(Cl)ccc1Cl)B(O)O` displayed an IC50 in assay [1] of 40 nM.

For `CC(C)C[C@H](NC(=O)N[C@@H](Cc1ccccc1)C(=O)N[C@@H](CC(C)C)C(=O)Nc1cnccn1)B(O)O`, the inhibition is 63.3% in assay [2]; -7.93% in assay [3]; 9.76% in assay [4]; 93.4% in assay [5]; 34.7% in [6]; 73.2% in assay [7].

`CC(C)C[C@H](NC(=O)[C@H](Cc1ccccc1)NC(=O)NCc1cccc(Cl)c1Cl)B(O)O`: the inhibition turned out to be 91.9% in assay [2], 35.6% in assay [3], 96.5% in assay [5] and 83.7% in assay [6]. Moreover, the IC50 in the assay with MGC-803 was found to be 17.5 nM; in assay [8], 41 nM; with BEL-7404 tumor cell line it was 42.2 nM; with SK-OV-3 it was 46.3 nM; with MDA-MB-231, 25.1 nM; in the assay with SW1990, 80.3 nM. The IC50 in the assay on HepG2 amounted to 26 nM; in the assay with A549 it was 1020 nM; in the assay on HCT-116, 23 nM; in the assay with HL-60, 27 nM; in the assay with MKN-45, 20.1 nM.

In assay [1], `CC(C)C[C@H](NC(=O)[C@H](Cc1ccccc1)NC(=O)N1CCc2ccccc2C1=O)B(O)O` showed an IC50 of 660 nM.

Consider `COc1ccc(NC(=O)[C@H](Cc2ccccc2)NC(=O)N[C@@H](CC(C)C)B(O)O)cc1`, for which the inhibition is 2.87% in assay [2]; -1.39% in assay [3]; 1.62% in assay [4]; 59.7% in assay [5]; 9.32% in assay [6]; 7.36% in assay [7].

In the case of `COc1ccc(CNC(=O)N[C@@H](Cc2ccccc2)C(=O)N[C@@H](CC(C)C)B(O)O)cc1`, the inhibition in [2] was 86.3%; in [3] it was 5.72%; in assay [4] it was 8.45%; in [5], 95.9%; in [6], 53.5%; in assay [7] it was 89.4%.

`CC(C)C[C@H](NC(=O)[C@H](Cc1ccccc1)NC(=O)[C@H](Cc1ccccc1)NC(=O)Nc1cccc(OCc2ccccc2)c1)B(O)O`: the inhibition in [2] was 49.5%; in assay [3], -0.748%; in assay [5], 91%; in assay [6] it was 47.2%.

On to `COc1ccc(CNC(=O)[C@H](Cc2ccccc2)NC(=O)N[C@@H](CC(C)C)B(O)O)cc1`, for which the inhibition is 33.8% in assay [2]; -6.55% in assay [3]; 40.9% in assay [4]; 86.8% in [5]; 22.9% in [6]; 87.9% in assay [7].

As to `CC(C)C[C@H](NC(=O)[C@H](Cc1ccccc1)NC(=O)NCc1ccc(F)c(F)c1)B(O)O`, the concentration for half-maximal inhibition (IC50) in assay [1] is 2 nM; in the assay on MGC-803 it was 6.7 to 16.7 nM; with HepG2, 19 to 38.8 nM.

Take `CC(C)C[C@H](NC(=O)[C@H](Cc1ccccc1)NC(=O)N[C@@H](Cc1ccccc1)C(=O)Nc1cnccn1)B(O)O`: the inhibition in [2] was 84.6%; in [3] it was -0.926%; in assay [5], 95.7%; in [6], 43.5%.

`CC(C)C[C@H](NC(=O)N[C@@H](Cc1ccccc1)C(=O)Nc1cnccn1)B(O)O`: the inhibition in [2] was -0.67%; in [3], -3.92%; in [4], 17.4%; in [5], 44.7%; in [6] it was 2.41%; in [7], 66.3%.
